According to patent publication US8084602B2, “Porphyrin derivatives and their use in photodynamic therapy” (Destiny Pharma Limited, priority 2002, dated 2011):

What was measured:
[1] = test system: bacterial cells compared to human skin cells; test: Selectivity for bacteria compared to human skin cells; type: cell-based; conditions: at a dose of 0.01 μM
Protocol: (§1) For the further investigation of the exemplary compounds (Table 2), the following protocol was adopted: • (i) Bacteria (S. aureus BAA-44 and E. coli 25922) were grown in brain heart infusion (BHI) broth until they reached the stationary phase of growth. • (ii) The cells were harvested by centrifugation (3000 g for 15 min) with a table centrifuge, washed with 10 mM PBS at pH 7.4 containing 2.7 mM KCl and 0.14 M NaCl and suspended in PBS at an optical density of 0.7 at 650 nm corresponding to 10^8-10^9 cells/ml. • (iii) The bacteria, at the desired cell density (˜10^8 cells/ml) were incubated for 5 min in the dark with various concentrations of the exemplary compounds. • (iv) At the end of the incubation period the cells were washed three times with PBS, suspended in PBS, transferred into a 96-well microtitre plate (200 μl/well) and illuminated for 15 min with the Waldmann light source (15.2 mW/cm^2; 13.7 J/cm^2). The cells were illuminated from the bottom of the plate laying it on the glass cover of the lamp. • (v) After illumination, cell survival was determined by plating serially diluted aliquots of treated and untreated (i.e. no exemplary compound or light present) cells onto brain heart agar (BHA) and counting the number of colonies after 18-24 h incubation at 37° C.
(§2) Test compounds were screened for toxicity against cultured human skin cells using normal human epidermal keratinocytes (NHEK) and normal human dermal fibroblasts (NHDF), purchased from CellSystems Biotechnologie GmbH, Germany.
The NHEK and NHDF cells were used between passages 3 and 10. The cells were seeded with 7.5 and/or 15×10^4 cells/well (microtitreplate) and allowed to attach overnight in an incubator (37° C., 5% CO2). After incubation with different concentrations of the selected photosensitisers, the cells were illuminated for fifteen minutes (Light source 236, Waldmann; 15.2 mW/cm^2, 13.7 J/cm^2) and then incubated for 24 hours in the dark.
(§3) Phototoxicity was tested by standard MTT-assay (Mossman et al., 1983, Immunological Methods 65:55-63). MTT is an indicator of metabolically active cells. Dependent on enzyme activity in mitochondria a colour reaction can be visualised, which can be measured by ELISA reader (540 nm). The cell viability data were normalised, i.e. the OD values of cells after PDT without photosensitisers were adjusted to one. Each experiment was repeated three times.

[2] = test system: normal human epidermal keratinocytes (NHEK); test: Toxicity against human skin cells, MTT-assay; type: cell-based
Protocol: as §2
(§4) The NHEK and NHDF cells were used between passages 3 and 10. The cells were seeded with 7.5 and/or 15×10^4 cells/well (microtitreplate) and allowed to attach overnight in an incubator (37° C., 5% CO2). […]
as §3

[3] = test system: normal human dermal fibroblasts (NHDF); test: Toxicity against human skin cells, MTT-assay; type: cell-based
Protocol: as §2, §4, §3

[4] = test system: S. aureus ATCC BAA-44 (a methicillin resistant S. aureus); test: Cell survival (colony forming unit) with or without illumination; type: cell-based, Staphylococcus aureus; conditions: for dark toxicity against BAA-44: absence of light, at the concentrations tested (FIG. 4); for Log reduction: S. aureus
Protocol: (§5) The toxic effects of exemplary compounds of the invention against two bacterial strains, the Gram negative bacterium Escherichia coli (strain ATCC 25922) and the Gram positive bacterium Staphylococcus aureus (methicillin-resistant strain ATTC BAA-44), were evaluated by measuring the extent of growth inhibition (bacteriostatic effect) and growth […] (cytocidal effect) in the dark and upon light exposure. Initial compound screening was undertaken using white light [390-740 nm] (150 mW/cm^2) for various timepoints of a concentration of 3 μM (see Table 1). Further experiments were undertaken on those compounds identified from this initial screen using a light source emitting light at a wavelength between 417-420 nm at 15.2 mW/cm^2, 13.68 J/cm^2 (Waldmann Eclairage SA, France) (see Table 20.
as §1
(§6) the above colony forming unit (CFU) protocol was also used to investigate the photodynamic activity of very low concentrations of the compounds of the invention.

[5] = Chemical stability, qualitative stress tests (HPLC, LC-MS); type: physicochemical; conditions: solid, aqueous solution and PBS; 7 days each at 50° C., 70° C., 90° C.
Protocol: The following HPLC methodology was established for the analysis of the exemplary compounds of the invention.
The method involves detection by UV at a wavelength of 420 nm, which is very specific for these compounds. In order to monitor impurities not related to the porphyrin structure (and therefore not absorbing at 420 nm) UV spectra of the whole chromatograms were also recorded between 200 nm and 700 nm by DAD (diode array detector) in certain experiments.
Qualitative stress tests were undertaken on the exemplary compounds of the invention. Analysis was undertaken by HPLC & LC-MS. The compounds were stress tested in solid form, in an aqueous solution and a solution made up in phosphate-buffered saline buffer. The samples were initially incubated for 7 days at 50° C. and a sample removed for testing. The samples were then incubated for a further 7 days at 70° C., samples removed as before and the samples incubated further for 7 days at 90° C. HPLC analysis of freshly prepared solutions was undertaken and compared to the samples after 7, 14 and 21 days incubation. A visual comparison of the chromatograms was then undertaken and the content of the main products and by-products as area percentage values determined (see FIG. 11).

[6] = test system: E. coli ATCC 25922; test: Cell survival (colony forming unit) with or without illumination; type: cell-based, Escherichia coli; conditions: for Log reduction: E. coli
Protocol: as §5, §1, §6

[7] = test system: Staphylococcus aureus BAA-44; test: Emergence of bacterial resistance to PDT; type: cell-based; conditions: S. aureus ATCC BAA-44; ten subsequent photodynamic treatments
Protocol: The potential build up of resistance of the bacterial cells to the exemplary compounds of the invention was tested in the multi-drug resistant (including methicillin) gram positive bacterium Staphylococcus aureus BAA-44, using Compound 10 as the photodynamic agent. The survival of S. aureus BAA-44 after the second treatment was again compared to the survival of S. aureus BAA-44 cells that had not been treated with PDT. […] In an additional experiment, clones which had been exposed nine times to PDT treatment by the above methodology were treated for a tenth time and the results compared to the cell kill observed in a parallel experiment where naïve cultures (i.e. which had not been exposed to PDT) were subjected to PDT treatment under exactly the same conditions.
The results obtained from comparing cell kill contained from cultures that had been exposed to 10 consecutive PDT treatments with neïve cultures (i.e. which had not been exposed to PDT) are shown in FIG. 7. The survival was expressed as log N0/N, where N0 and N represent the number of CFU/ml of the untreated and treated cell suspensions.

[8] = dark toxicity, 10 μM, no illumination
[9] = photodynamic activity (light toxicity), 0.01 μM, illumination 15 min
[10] = photodynamic activity (light toxicity), 0.1 μM, illumination 15 min
[11] = photodynamic activity (light toxicity), 1 μM, illumination 15 min
[12] = dark toxicity, 1 μM, no illumination
[13] = dark toxicity (no illumination), 1 μM
[14] = dark toxicity (no illumination), 10 μM
[15] = photodynamic activity, 0.01 μM, illumination 15 min
[16] = photodynamic activity, 1 μM, illumination 15 min
[17] = dark toxicity (no illumination), 0.01 μM

With `CN(C)CCC[N+](C)(C)CCCOc1ccc(-c2c3nc(cc4ccc([nH]4)c(-c4ccc(OCCC[N+](C)(C)CCCN(C)C)cc4)c4nc(cc5ccc2[nH]5)C=C4)C=C3)cc1.[Cl-].[Cl-]` [Compound 8, 5,15-bis-(4-{3-[(3-Dimethylamino-propyl)-dimethylammonio]-propyloxy}-phenyl)-porphyrin dichloride] the “toxicity to bacterial cells compared to human skin cells” value [1] was “preferentially toxic to bacterial cells compared to human skin cells”, the Survival [2, 8] was 97% and the Survival [2, 9] was 98%. For the same compound, the Survival [2, 10] was 33%, the Survival [2, 11] was 0.5% and the Survival [3, 12] was 100%. It also gave a Survival [3, 8] of 68%, a Survival [3, 9] of 100% and a Survival [3, 10] of 12%. For the same compound, the Survival [3, 11] was 3%, the “dark toxicity against BAA-44” value [4] was “negligible” and the Log reduction [4, 13] was <1 (<10^−1). The Log reduction [4, 14] was <1 (<10^−1), the Log reduction [4, 15] was 3 and the Log reduction ([4]; photodynamic activity, 0.1 μM, illumination 15 min) was 3 (10^−3). For the same compound, the Log reduction [4, 16] was 6 (10^−6), the “chemical stability under stress test” value [5] was “less stable than Compounds 10 and 12” and the Log reduction [6, 17] was <1 (<10^−1). The Log reduction [6, 14] was 2 (10^−2), the Log reduction [6, 15] was <1 (<10^−1) and the Log reduction ([6]; photodynamic activity, 10 μM, illumination 15 min) was >6 (>10^−6).

For `C[N+](C)(C)CCCOc1ccc(-c2c3nc(cc4ccc([nH]4)c(-c4ccc(OCCC[N+](C)(C)C)cc4)c4nc(cc5ccc2[nH]5)C=C4)C=C3)cc1.[Cl-].[Cl-]` [Compound 10, 5,15-bis-[4-(3-Trimethylammonio-propyloxy)-phenyl]-porphyrin dichloride], the development of resistance [7] was “no appreciable development of resistance”, the “toxicity to bacterial cells compared to human skin cells” value [1] was “preferentially toxic to bacterial cells compared to human skin cells” and the Survival [2, 12] was 100%. The Survival [2, 8] was 51%, the Survival [2, 9] was 62% and the Survival [2, 10] was 1.0%. It also gave a Survival [3, 12] of 100%, a Survival [3, 8] of 91% and a Survival [3, 9] of 80%. For the same compound, the Survival [3, 10] was 8%, the Survival [3, 11] was 0.5% and the bacteria killed ([4]; BAA-44, 0.0025 μM, with light) was 90%. For the same compound, the “Concentration of Compound 10 required to obtain a 3 log reduction in cells (μM)” value ([4]; Staphylococcus aureus ATCC BAA-44) was 0.005 μM, the “dark toxicity against BAA-44” value [4] was “negligible” and the Log reduction [4, 17] was <1 (<10^−1). For the same compound, the Log reduction [4, 15] was >4 (>10^−4), the “chemical stability under stress test” value [5] was “good stability” and the “Concentration of Compound 10 required to obtain a 3 log reduction in cells (μM)” value ([6]; E. coli ATCC 25922) was 0.1 μM. The Log reduction [6, 13] was <1 (<10^−1) and the Log reduction [6, 16] was >6 (>10^−6).
